Laboratory results from PMC7821958, “Synthesis, in vitro enzyme activity and molecular docking studies of new benzylamine-sulfonamide derivatives as selective MAO-B inhibitors” (Journal of Enzyme Inhibition and Medicinal Chemistry, 2020).
Like-named read-outs stand apart in the source and are kept apart here.

Columns and labels:
hMAO-B = biological target: T1, hMAO-B (Homo sapiens, UniProt P27338); experiment: MAO-B inhibition assay, fluorometric (Amplex Red / horseradish peroxidase-coupled); format: biochemical; conditions: for inhibition at 1000 µM: 10^−3 M; for inhibition at 100 µM: 10^−4 M; for inhibition at 10 µM: 10^−5 M; for inhibition at 1 µM: 10^−6 M; for inhibition at 0.1 µM: 10^−7 M; for inhibition at 0.01 µM: 10^−8 M; for inhibition at 0.001 µM: 10^−9 M; for IC50: Table 2, mean ± SD, read-out: IC50 against MAO-B;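 for all read-outs here: fluorescence read at Ex 535 nm and Em 587 nm over 30 min, linear phase, inhibition relative to uninhibited control wells, IC50 from log concentration–response curves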
T1 construct: purchased Sigma-Aldrich (Steinheim, Germany)
T1 sequence (P27338 1-520): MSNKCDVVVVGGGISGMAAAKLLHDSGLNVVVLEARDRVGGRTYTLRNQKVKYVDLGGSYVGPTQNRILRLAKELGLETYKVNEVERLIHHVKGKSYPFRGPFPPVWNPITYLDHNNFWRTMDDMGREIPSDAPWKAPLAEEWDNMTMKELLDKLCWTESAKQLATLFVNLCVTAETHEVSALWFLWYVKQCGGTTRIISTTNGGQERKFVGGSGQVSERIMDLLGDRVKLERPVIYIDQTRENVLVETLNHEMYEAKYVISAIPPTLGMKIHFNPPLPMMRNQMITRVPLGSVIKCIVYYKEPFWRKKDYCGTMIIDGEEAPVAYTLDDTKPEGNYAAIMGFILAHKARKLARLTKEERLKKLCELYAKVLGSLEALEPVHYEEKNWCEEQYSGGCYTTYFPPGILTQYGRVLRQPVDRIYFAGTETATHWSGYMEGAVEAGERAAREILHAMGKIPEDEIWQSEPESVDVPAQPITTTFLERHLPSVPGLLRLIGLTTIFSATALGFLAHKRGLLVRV
Text: FCt2: Fluorescence of a control well measured at t2 time, FCt1: Fluorescence of a control well measured at t2 time, FIt2: Fluorescence of an inhibitor well measured at t2 time, FIt1: Fluorescence of an inhibitor well measured at t1 time,

hMAO-A = biological target: T2, hMAO-A (Homo sapiens, UniProt P21397); experiment: MAO-A inhibition assay, fluorometric (Amplex Red / horseradish peroxidase-coupled); format: biochemical; conditions: read-out: MAO-A % Inhibition
T2 construct: purchased Sigma-Aldrich (Steinheim, Germany)
T2 sequence (P21397 1-527): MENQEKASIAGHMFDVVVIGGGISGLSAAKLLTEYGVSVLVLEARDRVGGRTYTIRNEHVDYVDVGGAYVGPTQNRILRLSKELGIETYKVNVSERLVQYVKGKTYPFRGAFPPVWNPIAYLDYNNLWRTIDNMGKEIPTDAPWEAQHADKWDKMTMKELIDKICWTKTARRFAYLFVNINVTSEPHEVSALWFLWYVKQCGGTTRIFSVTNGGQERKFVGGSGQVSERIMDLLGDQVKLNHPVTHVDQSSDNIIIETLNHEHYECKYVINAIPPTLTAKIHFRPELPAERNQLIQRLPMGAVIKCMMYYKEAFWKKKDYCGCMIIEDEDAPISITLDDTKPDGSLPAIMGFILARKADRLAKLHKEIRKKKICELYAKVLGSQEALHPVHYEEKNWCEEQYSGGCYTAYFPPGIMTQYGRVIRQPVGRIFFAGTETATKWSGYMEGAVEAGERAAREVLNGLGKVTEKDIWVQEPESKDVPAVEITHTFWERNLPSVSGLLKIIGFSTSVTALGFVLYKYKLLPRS
Experimental: A Biotek Precision XS robotic system (USA) was used for all pipetting operations. Measurements were performed with the use of BioTek-Synergy H1 microplate reader (USA) based upon the fluorescence generated (excitation, 535 nm, emission, 587 nm) over a 30 min period, in which the fluorescence increased linearly.
Enzymatic assay was performed according to recent method pronounced by our research group[17]^,[20–22]. Control, blank and all concentrations of obtained compounds were tested in quadruplicate and inhibition percent was calculated with following equation: % Inhibition=(FCt2 − FCt1) − (FIt2 − FIt1)/FCt2 − FCt1 × 100
FCt2: Fluorescence of a control well measured at t2 time, FCt1: Fluorescence of a control well measured at […]: Fluorescence of an inhibitor well measured at t2 time, FIt1: Fluorescence of an inhibitor well measured at t1 time,
The IC50 values were calculated using a dose-response curve achieved by plotting the percentage inhibition versus the log concentration using GraphPad ‘PRISM’ software (version 5.0).
All the obtained benzylamine-sulphonamide derivatives 4a–4u were investigated for their inhibitory activity against MAO isoforms using a previously described in vitro fluorometric method, which is based on the detection of H2O2 in a horseradish peroxidase-coupled reaction using 10-acetyl-3,7-dihydroxyphenoxazine (Amplex Red reagent)[17]^,[20–22].
The assay was carried out in two steps. […].

Row | SMILES | inhibition at 1000 µM (hMAO-B) | inhibition at 100 µM (hMAO-B) | inhibition at 10 µM (hMAO-B) | inhibition at 1 µM (hMAO-B) | inhibition at 0.1 µM (hMAO-B) | inhibition at 0.01 µM (hMAO-B) | inhibition at 0.001 µM (hMAO-B) | IC50 (hMAO-B) | inhibition at 1000 µM (hMAO-A; 10^−3 M) | inhibition at 100 µM (hMAO-A; 10^−4 M) | melting point | inhibition at 100 µM (hMAO-A) | inhibition at 1000 µM (hMAO-A)
1 | Cc1ccc(CN(C(=O)CSc2nnnn2C)c2ccc(S(N)(=O)=O)cc2)cc1 [Compound 4n, 2-((1-Methyl-1H-tetrazol-5-yl)thio)-N-(4-methylbenzyl)-N-(4-sulfamoylphenyl)acetamide] | 72.2 ± 0.959% | 38.3 ± 0.638% | – | – | – | – | – | – | 40.2 ± 0.97% | 21.5 ± 0.632% | – | – | –
2 | Cn1cnnc1SCC(=O)N(Cc1ccccc1)c1ccc(S(N)(=O)=O)cc1 [Compound 4b, N-Benzyl-2-((4-methyl-4H-1,2,4-triazol-3-yl)thio)-N-(4-sulfamoylphenyl)acetamide] | 90.3 ± 1.3% | 86.3 ± 1.29% | 82.5 ± 1.11% | 76.9 ± 1.27% | 45.3 ± 0.974% | 32.6 ± 0.728% | 20.4 ± 0.683% | 0.188 ± 0.008 µM | 37.6 ± 0.714% | 20.1 ± 0.621% | 201 to 203 °C | – | –
3 | COc1ccc2sc(SCC(=O)N(Cc3ccc(C)cc3)c3ccc(S(N)(=O)=O)cc3)nc2c1 [Compound 4u, 2-((5-Methoxybenzothiazol-2-yl)thio)-N-(4-methylbenzyl)-N-(4-sulfamoylphenyl)acetamide] | 65.1 ± 0.985% | 36 ± 0.726% | – | – | – | – | – | – | 36.8 ± 0.678% | 29.9 ± 0.539% | – | – | –
4 | NS(=O)(=O)c1ccc(N(Cc2ccccc2)C(=O)CSc2nc3ccccc3o2)cc1 [Compound 4g, 2-(Benzoxazol-2-ylthio)-N-benzyl-N-(4-sulfamoylphenyl)acetamide] | 94.7 ± 1.34% | 47.3 ± 0.963% | – | – | – | – | – | – | 47.2 ± 0.979% | 32.2 ± 0.621% | 82 to 84 °C | – | –
5 | Cc1ccc(CN(C(=O)CSc2nccn2C)c2ccc(S(N)(=O)=O)cc2)cc1 [Compound 4k, 2-((1-Methyl-1H-imidazol-2-yl)thio)-N-(4-methylbenzyl)-N-(4-sulfamoylphenyl)acetamide] | 79.5 ± 0.957% | 39 ± 0.702% | – | – | – | – | – | – | 39.3 ± 0.701% | 30.3 ± 0.582% | 153 to 155 °C | – | –
6 | Cc1ccc(CN(C(=O)CSc2nnc(C)s2)c2ccc(S(N)(=O)=O)cc2)cc1 [Compound 4m, 2-((5-Methyl-1,3,4-thiadiazol-2-yl)thio)-N-(4-methylbenzyl)-N-(4-sulfamoylphenyl)acetamide] | 76.3 ± 1% | 40.1 ± 0.799% | – | – | – | – | – | – | 37.4 ± 0.85% | 31.1 ± 0.729% | 178 to 180 °C | – | –
7 | Cc1ccc(CN(C(=O)CSc2nc3ccccc3s2)c2ccc(S(N)(=O)=O)cc2)cc1 [Compound 4s, 2-(Benzothiazol-2-ylthio)-N-(4-methylbenzyl)-N-(4-sulfamoylphenyl)acetamide] | 72.7 ± 1% | 40.3 ± 0.835% | – | – | – | – | – | – | 38.2 ± 0.734% | 33 ± 0.697% | 170 to 172 °C | – | –
8 | NS(=O)(=O)c1ccc(N(Cc2ccccc2)C(=O)CSc2nnnn2-c2ccccc2)cc1 [Compound 4e, N-Benzyl-2-((1-phenyl-1H-tetrazol-5-yl)thio)-N-(4-sulfamoylphenyl)acetamide] | 90.1 ± 1.01% | 48.4 ± 0.721% | – | – | – | – | – | – | 41.5 ± 0.899% | 28 ± 0.714% | – | – | –
9 | C#CCN(C)CCCOc1ccc(Cl)cc1Cl [Clorgiline, reference compound] | – | – | – | – | – | – | – | – | – | – | – | 98.3 ± 1.82% | 99.4 ± 1.96%
10 | Cc1ccc(CN(C(=O)CSc2nnnn2-c2ccccc2)c2ccc(S(N)(=O)=O)cc2)cc1 [Compound 4o, N-(4-Methylbenzyl)-2-((1-phenyl-1H-tetrazol-5-yl)thio)-N-(4-sulfamoylphenyl)acetamide] | 68.3 ± 0.824% | 30.3 ± 0.721% | – | – | – | – | – | – | 44.2 ± 0.877% | 28.7 ± 0.509% | – | – | –
11 | Cn1ccnc1SCC(=O)N(Cc1ccccc1)c1ccc(S(N)(=O)=O)cc1 [Compound 4a, N-Benzyl-2-((1-methyl-1H-imidazol-2-yl)thio)-N-(4-sulfamoylphenyl)acetamide] | 92.3 ± 1.11% | 47 ± 0.958% | – | – | – | – | – | – | 35.1 ± 0.989% | 26.5 ± 0.856% | 137 to 139 °C | – | –
12 | NS(=O)(=O)c1ccc(N(Cc2ccccc2)C(=O)CSc2ccccn2)cc1 [Compound 4f, N-Benzyl-2-(pyridin-2-ylthio)-N-(4-sulfamoylphenyl)acetamide] | 90.6 ± 1.39% | 83.3 ± 1.26% | 76.3 ± 1.11% | 73.2 ± 1.06% | 48.6 ± 0.957% | 32.5 ± 0.721% | 20.9 ± 0.623% | 0.146 ± 0.006 µM | 46 ± 0.863% | 30.1 ± 0.627% | – | – | –
13 | Cc1ccc(CN(C(=O)CSc2ccccn2)c2ccc(S(N)(=O)=O)cc2)cc1 [Compound 4p, N-(4-Methylbenzyl)-2-(pyridin-2-ylthio)-N-(4-sulfamoylphenyl)acetamide] | 70.5 ± 1.07% | 35.6 ± 0.622% | – | – | – | – | – | – | 45.2 ± 0.971% | 24.9 ± 0.792% | 121 to 123 °C | – | –

The next lines start with results.

Row | inhibition at 1000 µM (hMAO-B) | inhibition at 100 µM (hMAO-B) | inhibition at 10 µM (hMAO-B) | inhibition at 1 µM (hMAO-B) | inhibition at 0.1 µM (hMAO-B) | inhibition at 0.01 µM (hMAO-B) | inhibition at 0.001 µM (hMAO-B) | IC50 (hMAO-B) | inhibition at 1000 µM (hMAO-A; 10^−3 M) | inhibition at 100 µM (hMAO-A; 10^−4 M) | melting point | SMILES | inhibition at 100 µM (hMAO-A) | inhibition at 1000 µM (hMAO-A)
14 | 91.6 ± 1.25% | 79.7 ± 1.46% | 76.2 ± 1.06% | 70.9 ± 1.01% | 47.5 ± 0.957% | 29.7 ± 0.723% | 15.2 ± 0.602% | 0.127 ± 0.005 µM | 39.2 ± 0.65% | 29.5 ± 0.489% | – | Cn1nnnc1SCC(=O)N(Cc1ccccc1)c1ccc(S(N)(=O)=O)cc1 [Compound 4d, N-Benzyl-2-((1-methyl-1H-tetrazol-5-yl)thio)-N-(4-sulfamoylphenyl)acetamide] | – | –
15 | 67.5 ± 0.957% | 33.1 ± 0.798% | – | – | – | – | – | – | 42.4 ± 0.821% | 32.7 ± 0.697% | 148 to 150 °C | Cc1ccc(CN(C(=O)CSc2nc3ccccc3o2)c2ccc(S(N)(=O)=O)cc2)cc1 [Compound 4r, 2-(Benzoxazol-2-ylthio)-N-(4-methylbenzyl)-N-(4-sulfamoylphenyl)acetamide] | – | –
16 | 90.8 ± 1.25% | 45.1 ± 0.958% | – | – | – | – | – | – | 48.2 ± 0.825% | 37.4 ± 0.679% | – | COc1ccc2sc(SCC(=O)N(Cc3ccccc3)c3ccc(S(N)(=O)=O)cc3)nc2c1 [Compound 4j, N-Benzyl-2-((5-methoxybenzothiazol-2-yl)thio)-N-(4-sulfamoylphenyl)acetamide] | – | –
17 | 96.2 ± 1.1% | 48.8 ± 0.879% | – | – | – | – | – | – | 39.1 ± 0.821% | 20.3 ± 0.608% | 88 to 90 °C | NS(=O)(=O)c1ccc(N(Cc2ccccc2)C(=O)CSc2nc3ccccc3s2)cc1 [Compound 4h, 2-(Benzothiazol-2-ylthio)-N-benzyl-N-(4-sulfamoylphenyl)acetamide] | – | –
18 | 74.2 ± 1.05% | 43.8 ± 0.882% | – | – | – | – | – | – | 42.3 ± 0.63% | 25.2 ± 0.712% | 229 to 231 °C | Cc1ccc(CN(C(=O)CSc2nncn2C)c2ccc(S(N)(=O)=O)cc2)cc1 [Compound 4l, 2-((4-Methyl-4H-1,2,4-triazol-3-yl)thio)-N-(4-methylbenzyl)-N-(4-sulfamoylphenyl)acetamide] | – | –
19 | 91.1 ± 1.25% | 48.3 ± 0.855% | – | – | – | – | – | – | 40.6 ± 0.749% | 24.1 ± 0.61% | 164 to 166 °C | Cc1nnc(SCC(=O)N(Cc2ccccc2)c2ccc(S(N)(=O)=O)cc2)s1 [Compound 4c, N-Benzyl-2-((5-methyl-1,3,4-thiadiazol-2-yl)thio)-N-(4-sulfamoylphenyl)acetamide] | – | –
